Consider two compounds from patent US20140323346A1, “BINDING AGENT” (Garvan Institute of Medical Research, priority 2011, published 2014).

Test [1] relates to protein kinases in MDA-MB-231 breast cancer cell lysates. As to the kind of experiment: Affinity purification of kinases from MDA-MB-231 cell lysates on inhibitor resins, bound proteins identified by LC-MS/MS. It counts as binding, Homo sapiens. The settings on record: MDA-MB-231 lysate. The procedure: MDA-MB-231 cells were cultured in RPMI1640 (Invitrogen) supplemented with 10% fetal bovine serum (Invitrogen) and insulin at 0.25 IU/ml. Subconfluent cells were lysed with ice-cold lysis buffer containing 50 mM HEPES-NaOH (pH 7.5), 150 mM NaCl, 0.5% Triton X-100, 1 mM EDTA 1 mM EGTA supplemented with additives (10 μg/ml aprotinin, 10 μg/ml leupeptin, 1 mM PMSF, 10 mM NaF, 50 ng/ml calyculin A, 1% phosphatase inhibitor mixture 3 (Sigma), and 2.5 mM Na3VO4) for 5 min on ice. Cell debris was removed by centrifugation at 16,500 g at 4° C. for 30 min and the supernatant was subsequently filtered through a 0.45 μm PVDF membrane (Millipore). Protein concentrations were measured by the Bradford assay (Bio-Rad).
Kinase inhibitors Purvalanol B (Tocris) and SU6668 (Biochempartner Chemical) were immobilized to EAH-sepharose 4B (GE Healthcare) and VI16832 (Evotec) was coupled to ECH-sepharose 4B (GE Healthcare) beads via a carbodiimide-mediated reaction. Briefly, 1 ml of beads were washed 3 times with 10 ml of 0.5 M NaCl, twice with 10 ml H2O and once with coupling buffer made of 50% dimethylformamide (DMF) and 50% ethanol. The washed and aspirated beads were then mixed with 1 ml of inhibitor solution (Purvalanol B at 10 mM, SU6668 at 10 mM and VI16832 at 3 mM dissolved in coupling buffer), followed by dropwise addition of 150 μl of 1 M N-(3-dimethylaminopropyl)-N-ethylcarbodiimide hydrochloride (EDC) in coupling buffer.
The coupling reaction was carried out in the dark at room temperature overnight on a rotating wheel. To block the remaining reactive groups, the resin was washed twice with 2 ml of coupling buffer followed by addition of 1 ml of DMF/ethanol/ethanolamine at ratio 1:1:1 (pH 8). The reaction was initiated by dropwise addition of 150 μl of 1 M EDC in coupling buffer and the mixture was then incubated again in the dark at room temperature overnight with gentle agitation. Subsequently the resin was washed 3 times with 10 ml of coupling buffer, twice with 10 ml of 0.5 M NaCl and once with 10 ml of 20% ethanol. The resin was stored in 20% ethanol as a suspension at 4° C. in the dark. For CTx-0294885 immobilization, activated CH Sepharose 4B (GE Healthcare) (0.5 g) was swelled with 20 ml of 1 mM HCl and collected by vacuum filtration. The collected resin was washed 4 times with 20 ml of 1 mM HCl, and mixed with 3 ml of CTx-0294885 (9 mM) dissolved in 50% DMF 50% 100 mM sodium bicarbonate (pH 8). The suspension was agitated on a shaker table for 18 h. The mixture was washed with 5 ml of 50% aqueous DMF and the resin was resuspended in IM ethanolamine in 50% aqueous DMF. The mixture was agitated for 1 h before the resin was collected by filtration and washed 5 times with 5 ml of 50% aqueous DMF, 10 times with 10 ml of 0.1 M acetate buffer (pH 4), 10 times with 10 ml of 0.1 M bicarbonate buffer (pH 8), and 10 times of 10 ml 20% ethanol. The resin was resuspended in 10 ml of 20% ethanol and stored at 4° C. An equally suitable alternative protocol for CTx-0294885 immobilization is described in Example 2.
The salt concentration in the protein lysates was adjusted to 1 M NaCl and the kinase inhibitor resins were washed once with 10 ml of H2O and once with 10 ml of washing buffer A (lysis buffer with 1 M NaCl plus 10 mM NaF and 0.1 mM Na3VO4) prior to kinase enrichment. For testing of single kinase inhibitors, 1 ml of inhibitor resin was incubated with 50 mg of protein lysates, and for multi-inhibitor resins, a cocktail comprising 1 ml of each inhibitor resin was used for incubation with 100 mg of protein lysates. After 2 h of incubation at 4° C. in the dark on a rotating wheel, the resins were washed twice with 10 ml of washing buffer A, once with 10 ml of washing buffer B (same as washing buffer A except NaCl concentration is 150 mM instead of 1 M) and once with washing buffer C (50 mM HEPES, 10 mM NaF and 0.1 mM Na3VO4). […]

For test [2], the system named is protein kinases from three different cell lines. The settings on record: cited from earlier work.

In test [1] (CTx-0294885 coupled to CL sepharose 4B beads, single resin), `CNC(=O)c1ccccc1Nc1nc(Nc2ccc(N3CCNCC3)cc2)ncc1Cl` [CTx-0294885, 2-((5-Chloro-2-((4-(piperazin-1-yl)phenyl)amino)pyrimidin-4-yl)amino)-N-methylbenzamide] had a proteins identified of 2546. In test [1] (FIG. 2A), the “kinases of the RGC (receptor guanylate cyclase) family identified” value was “No kinases from the minor RGC (receptor guanylate cyclase) family were identified” and the “major kinase subgroups with representatives identified” value was 9. Besides, the “relative enrichment of kinase families” value in test [1] (FIG. 2B) is “particularly strong enrichment for kinases of the STE, CMGC and AGC subfamilies”. In test [1] (comparison with purvalanol B, SU6668 and VI16832 columns), the “kinases bound that are not bound by the other reagents (P, S, V)” value stood at 77. The “enrichment of non-protein kinases” value in test [1] (gene ontology analysis, FIG. 2C) is reported as “enrichment for other purine nucleotide binding proteins”. Besides, the “kinase identifications if phosphosites are included (kinases bound)” value in test [1] (single resin) was 240. In test [1] (single resin, phosphosites not included), the “kinases identified among the proteins identified” value is 185.

Turning to `NCCOc1ccc(Nc2ncc3ccc(=O)n(C4CC5CCC4C5)c3n2)cc1` (stereo not drawn) [VI16832], the “protein kinases detected in total” value in test [2] is 170.
